Source: PMC4178217, “Quinoline 3-sulfonamides inhibit lactate dehydrogenase A and reverse aerobic glycolysis in cancer cells” (Cancer & Metabolism, 2013)

Tests used:
[1] = test system: HCC1937 cells; experiment: ECAR after mitochondrial inhibition, breast cancer lines and HCC1937 isogenic shRNA lines; format: cell-based, human
Protocol: A2780 were obtained from the European Collection of Cell Cultures (ECACC, Porton Down, UK), IGROV-1 and U251 were from the National Cancer Institute (NCI, Bethesda, MD, USA), and all other cell lines were from American Type Culture Collection (ATCC, Manassas, VA, USA). The cell lines were authenticated as previously described. All cell lines were maintained in a 37°C 5% CO2-95% humidified air incubator. Breast cancer cell lines were cultured in DMEM (Life Technologies, Carlsbad, CA, USA) supplemented with 5% FBS (Sigma-Aldrich, St. Louis, MO, USA). All other cell lines were maintained in R10 medium (Roswell Park Memorial Institute medium (RPMI)-1640 (Life Technologies) supplemented with 10% FBS). MCF10A cells were supplemented with additional cholera toxin (100 ng/mL), hydrocortisone ([…]), insulin (10 μg/mL), and epidermal growth factor (EGF) (20 ng/mL). […]
For XF96 experiments breast cancer cells were seeded in DMEM without bicarbonate at 16,000/well in XF96 V3 PET plates (Seahorse Biosciences) coated with CellTak (BD Biosciences, San Jose, CA, USA). […] The medium was exchanged with DMEM without bicarbonate prior to readings on the XF96 Analyzer (Seahorse Biosciences).

[2] = biological target: recombinant human LDHA (Homo sapiens, UniProt P00338); experiment: recombinant human LDHA enzyme assay (lactate to pyruvate, NADH via diaphorase/resazurin)

SMILES	sensitivity (ECAR) with LDHA knockdown ([1]; HCC1937 stable LDHA shRNA)	sensitivity (ECAR) with LDHB knockdown ([1]; HCC1937 stable LDHB shRNA)	IC50 [2]
COc1ncc(-c2ccc3c(Nc4cc(Oc5cc(F)cc(F)c5)cc(C(=O)O)c4)c(S(=O)(=O)NC4CC4)cnc3c2)c(OC)n1 [Compound 1]	did not change their sensitivity	more sensitive	–
COc1ncc(-c2ccc3c(Nc4cc(C(=O)O)cc(C5CCCC5)c4)c(S(=O)(=O)NC4CC4)cnc3c2)c(OC)n1 [Compound 2]	–	–	16 ± 7 nM
